# Results reported in paper PMC7748285, “A small molecule that mitigates bacterial infection disrupts Gram-negative cell membranes and is inhibited by cholesterol and neutral lipids” (PLoS Pathogens, 2020).
# Biological target: T1, AcrB (Escherichia coli, UniProt P31224)
# T1 construct: 4·His tag at the C-terminus
# Assay: isothermal titration calorimetry (ITC) with purified AcrB, […]°C
# Format: binding
# T1 sequence (P31224 whole entry): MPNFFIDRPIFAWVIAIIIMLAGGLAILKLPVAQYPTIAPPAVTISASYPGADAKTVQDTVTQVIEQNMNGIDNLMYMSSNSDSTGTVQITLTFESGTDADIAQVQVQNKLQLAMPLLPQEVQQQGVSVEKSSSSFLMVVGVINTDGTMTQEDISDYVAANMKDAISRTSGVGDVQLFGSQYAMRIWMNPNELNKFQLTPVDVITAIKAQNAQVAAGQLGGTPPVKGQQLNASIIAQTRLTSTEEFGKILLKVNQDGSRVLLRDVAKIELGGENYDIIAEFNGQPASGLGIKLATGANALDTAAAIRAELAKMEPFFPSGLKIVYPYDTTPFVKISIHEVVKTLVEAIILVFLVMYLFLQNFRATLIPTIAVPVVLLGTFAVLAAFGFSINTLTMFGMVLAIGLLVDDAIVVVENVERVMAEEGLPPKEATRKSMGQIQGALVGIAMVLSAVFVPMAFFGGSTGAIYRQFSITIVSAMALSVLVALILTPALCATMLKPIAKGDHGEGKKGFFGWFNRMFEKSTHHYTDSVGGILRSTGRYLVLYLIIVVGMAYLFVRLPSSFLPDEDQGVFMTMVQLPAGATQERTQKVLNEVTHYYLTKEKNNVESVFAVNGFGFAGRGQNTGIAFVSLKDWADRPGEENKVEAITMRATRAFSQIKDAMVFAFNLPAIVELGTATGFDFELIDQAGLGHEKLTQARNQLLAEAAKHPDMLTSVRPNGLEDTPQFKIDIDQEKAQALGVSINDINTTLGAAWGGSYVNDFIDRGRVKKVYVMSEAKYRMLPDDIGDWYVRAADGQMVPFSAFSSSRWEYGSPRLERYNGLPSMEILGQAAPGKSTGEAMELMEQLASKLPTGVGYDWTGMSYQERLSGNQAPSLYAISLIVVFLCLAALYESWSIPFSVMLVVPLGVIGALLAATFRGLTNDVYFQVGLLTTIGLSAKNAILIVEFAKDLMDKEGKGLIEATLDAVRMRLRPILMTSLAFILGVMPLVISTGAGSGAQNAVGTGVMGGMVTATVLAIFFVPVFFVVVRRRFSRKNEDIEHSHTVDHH
smiles,measurement,value
OC(COc1ccc(C23CC4CC(CC(C4)C2)C3)cc1)CN1CCCCC1 (stereo not shown) [JD1],Kd,520 nM
